What all share (test): NCI tumour cell line growth inhibition, 48 h
In test [1] the test system is SF-268.
Test [2] deals with U-251.
The subject of test [3] is A549.
The test system of test [4] is SNB-75.
Test [5] deals with RXF 393.
Test [6] deals with Hs-578T.
In test [7] the test system is HOP-62.
The test system of test [8] is SNB-19.
Test [9] has as its system MDA-N.
Test [10] has as its system NCI-H23.
Test [11] has as its system IGROV-1.
For test [12], the system named is OVCAR-8.
In test [13] the test system is HCT-15.
The test system of test [14] is Malme-3M.
The subject of test [15] is HT-29.
Test [16] relates to PC-3.
The test system of test [17] is A498.
Test [18] relates to SF-539.
In test [19] the test system is EKVX.
The test system of test [20] is NCI-H522.

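Values below derive from 48-hour exposures of cells grown in 96-well plates, with endpoints linearly interpolated between the two concentrations bracketing the appropriate inhibition level. At the GI50, growth is halved.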 The source made the active and inactive calls. No stated cut-off is given here; in the data, active = GI50 up to about 1.1 µM and inactive = higher. Where only a bound is given, the exact number is not on record here.

As for `C=CC(=O)N1C/C(=C\c2ccc(N(C)C)cc2)C(=O)/C(=C/c2ccc(N(C)C)cc2)C1`, the GI50 was 67.3 µM (inactive) in [1]; > 100 µM (inactive) in test [2]; > 100 µM (inactive) in test [3]; > 100 µM (inactive) in [4]; 43.1 µM (inactive) in test [5]; 30 µM (inactive) in [6]. Besides, the GI50 in [7] was > 100 µM (inactive); in test [8] it was > 100 µM (inactive); in test [9], 17.8 µM (inactive); in test [10], > 100 µM (inactive); in test [11], > 100 µM (inactive); in test [12], > 100 µM (inactive). In addition, the GI50 was 18.2 µM in [13]; > 100 µM (inactive) in test [14]; 10.4 µM (inactive) in test [15]; 34 µM (inactive) in test [16]; > 100 µM (inactive) in test [17]; 26.2 µM (inactive) in [18]. Further, the GI50 in [19] is > 100 µM (inactive).

For the compound `O=[N+]([O-])c1cc(Cl)ccc1S(=O)(=O)N1CCCc2cc(Cl)ccc21`, the GI50 in test [1] is > 100 µM (inactive); in test [3], 43.1 µM (inactive); in test [4], 18.7 µM (inactive); in test [5] it was 51.2 µM (inactive); in [6], > 100 µM (inactive); in test [7] it was > 100 µM (inactive). The GI50 in [8] is > 100 µM (inactive); in [9], 22.5 µM (inactive); in test [11], 30.8 µM (inactive); in [12], > 100 µM (inactive); in [13], 33.7 µM; in test [14], 51.5 µM (inactive). For the same compound, the GI50 was 21 µM (inactive) in [15]; 55 µM (inactive) in test [16]; 45.6 µM (inactive) in test [17]; 93.1 µM (inactive) in test [18]; > 100 µM (inactive) in test [19].

With `O=C1/C(=C/c2ccc(Cl)cc2)N=C(c2ccccc2)N1c1ccc(S(=O)(=O)Nc2nccs2)cc1`, the GI50 in [1] was 50.8 µM (inactive); in test [2], 36.2 µM (inactive); in test [3] it was 52.4 µM (inactive); in test [4], 39.5 µM (inactive); in test [5], 33.4 µM (inactive); in [6] it was 64.4 µM (inactive). Moreover, the GI50 in test [7] was 62.2 µM (inactive); in test [8], 40.7 µM (inactive); in test [9], 26 µM (inactive); in [10], 52.2 µM (inactive); in test [13], 37.5 µM; in test [14], 30.9 µM (inactive). Also, the GI50 in test [15] is 21.9 µM (inactive); in [16] it was 31.6 µM (inactive); in test [17] it was 43.6 µM (inactive); in test [18], 88.3 µM (inactive); in [19], 31.5 µM (inactive).

`CC(=O)c1c(C)n(C)c2c1nnc1ccccc12`: the GI50 in test [1] was 34.1 µM (inactive); in test [2] it was 49.4 µM (inactive); in test [3], 32.2 µM (inactive); in [20], > 100 µM (inactive); in test [5] it was 40.2 µM (inactive); in test [6], 32.6 µM (inactive). Also, the GI50 was 55.2 µM (inactive) in [7]; 55.5 µM (inactive) in [8]; 67.9 µM (inactive) in [9]; 37.5 µM (inactive) in test [10]; 43.5 µM (inactive) in test [12]; 42.1 µM in test [13]. In addition, the GI50 in [14] was 39.5 µM (inactive); in test [15] it was 34.1 µM (inactive); in test [16] it was 59.3 µM (inactive); in test [17], 21.1 µM (inactive); in test [18], 34.8 µM (inactive); in test [19] it was 12.8 µM (inactive).

As to `O/N=C1/Nc2ccccc2C(=S)N2CSCC12` (stereo unspecified), the GI50 is 78 µM (inactive) in [1]; > 100 µM (inactive) in [2]; 83.2 µM (inactive) in test [3]; 37 µM (inactive) in [20]; 16.4 µM (inactive) in test [4]; > 100 µM (inactive) in test [5]. In addition, the GI50 in test [6] was > 100 µM (inactive); in test [7], > 100 µM (inactive); in [8] it was 50.4 µM (inactive); in test [9], 18.3 µM (inactive); in [11], > 100 µM (inactive); in test [12], > 100 µM (inactive). The GI50 in test [13] was greater than 100 µM; in test [14] it was > 100 µM (inactive); in [15], 36.9 µM (inactive); in test [16] it was 73.8 µM (inactive); in [17], 68.7 µM (inactive); in test [19] it was > 100 µM (inactive).

On to `CCCCCCCCCCCCc1ccsc1-c1ccc(-c2ccc(-c3sccc3CCCCCCCCCCCC)s2)s1`, for which the GI50 in [1], in [2], in [3], in test [20], in test [4] and in [5] was > 100 µM (inactive) in each case. The GI50 in test [6], in test [7], in [8], in [9], in test [10] and in test [11] was > 100 µM (inactive) each time. The GI50 is > 100 µM (inactive) in test [12]; greater than 100 µM in test [13]; > 100 µM (inactive) in [15]; > 100 µM (inactive) in [16]; > 100 µM (inactive) in test [17]; > 100 µM (inactive) in test [18]. For the same compound, the GI50 in test [19] is > 100 µM (inactive).

Take `Cl/C(=N\c1cccc2ccccc12)N(c1ccccc1)c1ccccc1`: the GI50 was 57.7 µM (inactive) in [2]; 56.5 µM (inactive) in test [3]; 41.2 µM (inactive) in [20]; > 100 µM (inactive) in test [4]; > 100 µM (inactive) in test [5]; > 100 µM (inactive) in test [6]. Also, the GI50 is > 100 µM (inactive) in test [7]; > 100 µM (inactive) in test [8]; 52 µM (inactive) in test [9]; > 100 µM (inactive) in test [10]; > 100 µM (inactive) in test [11]; greater than 100 µM in [13]. The GI50 in test [14] is 39 µM (inactive); in test [15] it was 52.7 µM (inactive); in [16] it was 44.6 µM (inactive); in [17], > 100 µM (inactive).

Take `CCC[C@@H]1C(=O)N=C(N)N1C(=O)OCc1ccccc1`: the GI50 in test [1], in test [2], in test [20], in test [4], in test [5] and in test [6] was > 100 µM (inactive) throughout. Moreover, the GI50 in test [7], in test [8], in test [9], in test [10], in [11] and in [12] was > 100 µM (inactive) in each case. The GI50 in [13] was greater than 100 µM; in test [14] it was > 100 µM (inactive); in test [15] it was > 100 µM (inactive); in [16], > 100 µM (inactive); in [17], > 100 µM (inactive); in [19], > 100 µM (inactive).

On to `O=c1n(CCCN2CCOCC2)nc2n1-c1ccc3ccccc3c1SC2`, for which the GI50 is 57.9 µM (inactive) in [2]; 50 µM (inactive) in [3]; 22.3 µM (inactive) in [20]; 47.8 µM (inactive) in test [4]; 57.7 µM (inactive) in test [5]; 37.6 µM (inactive) in test [6]. Further, the GI50 in test [7] was 52.2 µM (inactive); in test [8] it was 52.6 µM (inactive); in test [9], 6.17 µM (inactive); in test [11], > 100 µM (inactive); in [12], 64.9 µM (inactive); in [13], 27.7 µM. Also, the GI50 in [15] is 19 µM (inactive); in [16] it was 38.6 µM (inactive); in [17] it was 89.9 µM (inactive); in test [18] it was 39.6 µM (inactive); in test [19], 89.7 µM (inactive).

With `CCOC(=O)/C=C/C(Br)=C(Br)/C=C/C(=O)OCC`, the GI50 in [1] was 18 µM (inactive); in [2], 14.6 µM (inactive); in test [3], 22.5 µM (inactive); in [20] it was 2.12 µM (inactive); in test [4], 12.4 µM (inactive); in test [5] it was 8.93 µM (inactive). Moreover, the GI50 is 29.2 µM (inactive) in test [6]; 17.9 µM (inactive) in test [7]; 17.5 µM (inactive) in test [8]; 10.3 µM (inactive) in test [9]; 14.5 µM (inactive) in [10]; 14.2 µM (inactive) in [11]. In addition, the GI50 in [12] was 4.79 µM (inactive); in test [13], 4.92 µM; in test [14], 3.4 µM (inactive); in test [15], 14.8 µM (inactive); in test [16], 13.5 µM (inactive); in test [17] it was 26.9 µM (inactive). For the same compound, the GI50 in test [19] was 17.9 µM (inactive).

With `Cc1cc(C)nc(NS(=O)(=O)c2ccc(NC(=O)c3cc([N+](=O)[O-])cc([N+](=O)[O-])c3)cc2)n1`, the GI50 in test [1] was 44.4 µM (inactive); in test [2] it was 84.3 µM (inactive); in test [3], > 100 µM (inactive); in test [4], 15.6 µM (inactive); in test [5], > 100 µM (inactive); in [6] it was > 100 µM (inactive). For the same compound, the GI50 in test [7], in test [8], in test [9], in test [10], in [11] and in test [12] was > 100 µM (inactive) in each case. Also, the GI50 in test [13] was greater than 100 µM; in test [14] it was 42.1 µM (inactive); in test [15] it was 31.4 µM (inactive); in test [16] it was 58.7 µM (inactive); in test [17] it was > 100 µM (inactive); in test [18] it was 37 µM (inactive).
